Emax and EC50 data for three compounds are collected here from patent US9527838B2, “2-pyridinecarboxamide derivatives, compositions containing such compounds, and methods of treatment” (priority 2012, dated 2016).

pEC50: −log10 of the molar value.

This assay has as its target Recombinant human liver glucokinase (Homo sapiens (Human), UniProt P35557). Briefly: Glucokinase activation assay (G6PDH-coupled, Thio-NADH absorbance at 405 nm). In kind it is biochemical. The settings on record: for pEC50: 2.5 mM Glu, 30° C. The source says: The glucokinase activity can, for instance, be determined without directly measuring glucose-6-phosphate by measuring the amount of Thio-NADH generated during the production of phosphogluconolactone from glucose-6-phosphate by a reporter enzyme glucose-6-phosphate dehydrogenase.
To test the exemplified compounds, the following assay was employed. Recombinant human liver glucokinase was expressed as a FLAG fusion protein in E. coli, and purified on […] M2 AFFINITY GEL (Sigma). The assay was carried out at 30° C. in a 96-well plate. In the plate was distributed 69 μl each of assay buffer (25 mM Hepes Buffer: pH=7.2, 2 mM MgCl2, 1 mM ATP, 0.5 mM TNAD, 1 mM dithiothreitol), to which was added 1 μl of a DMSO solution of the compound or DMSO as control. Then, 20 μl of pre-ice-cooled enzyme mixture (FLAG-GK, 20 U/ml G6PDH) was distributed thereto, to which was added 10 μl of 25 mM glucose as substrate to initiate the reaction (final glucose concentration=2.5 mM). After starting the reaction, the absorbance at 405 nm was measured every 30 seconds for 10 minutes to evaluate the compound based on the initial increase for 5 minutes. FLAG-GK was added so that the increase of absorbance after 5 minutes fell between 0.05 to 0.1 in the presence of 1% DMSO.
The OD values of the respective compounds were measured in the respective concentrations, wherein the OD value of DMSO as control is regarded as 100%.

Chain of Recombinant human liver glucokinase (P35557 other isoform, or with tags, fused parts or gaps): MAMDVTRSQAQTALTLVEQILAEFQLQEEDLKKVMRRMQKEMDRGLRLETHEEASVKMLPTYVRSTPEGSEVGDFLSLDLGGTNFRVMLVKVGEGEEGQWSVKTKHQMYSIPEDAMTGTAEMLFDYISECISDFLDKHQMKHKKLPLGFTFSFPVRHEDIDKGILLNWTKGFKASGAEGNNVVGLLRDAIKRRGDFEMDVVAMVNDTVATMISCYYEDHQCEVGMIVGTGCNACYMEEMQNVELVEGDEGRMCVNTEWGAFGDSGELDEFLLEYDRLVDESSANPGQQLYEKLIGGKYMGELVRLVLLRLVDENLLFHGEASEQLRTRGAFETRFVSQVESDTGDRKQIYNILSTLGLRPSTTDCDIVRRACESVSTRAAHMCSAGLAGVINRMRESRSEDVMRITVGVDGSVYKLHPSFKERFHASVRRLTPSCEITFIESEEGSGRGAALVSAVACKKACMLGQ

On to `O=C(O)CCc1cnc(NC(=O)c2nc(Sc3ccccn3)ccc2Sc2ccc(F)cc2)s1` [Example 40, 3-{2[({3-[(4-Fluorophenyl)sulfanyl]-6-(pyridin-2-ylsulfanyl)pyridin-2-yl}carbonyl)amino]-1,3-thiazol-5-yl}propanoic acid], for which the Emax (as a rule, the size of the effect at its maximum, as opposed to the concentration needed) was 658% and the pEC50 (commonly the negative decadic logarithm of the EC50, by convention in mol/L) is 6.37.
Consider `COC(=O)CCc1cnc(NC(=O)c2nc(Sc3ccccn3)ccc2Sc2ccc(F)cc2)s1` [Example 39, Methyl 3-{2-[({3-[(4-fluorophenyl)sulfanyl]-6-(pyridin-2-ylsulfanyl)pyridin-2-yl}carbonyl)amino]-1,3-thiazol-5-yl}propanoate], for which the Emax stood at 468% and the pEC50 was 6.14.
Regarding `CCOC(=O)Cc1csc(NC(=O)c2nc(Sc3ccccn3)ccc2Sc2ccc(F)cc2)n1` [Example 33, Ethyl {2-[({3-[(4-fluorophenyl)sulfanyl]-6-(pyridin-2-ylsulfanyl)pyridin-2-yl}carbonyl)amino]-1,3-thiazol-4-yl}acetate], the Emax stood at 456% and the pEC50 was 5.33.
